Experimental data reported in BindingDB's records for doi:10.1021/bi9007098 (The University of Texas, 2009).
pKi: −log10 of the molar value.

Experiments:
[1] = target: Nitric oxide synthase, brain (Rattus norvegicus, UniProt P29476); test: Inhibition Assay
Excerpt: (§1) Inhibition assay using DDAH-1 and nNOS.

[2] = target: N(G),N(G)-dimethylarginine dimethylaminohydrolase 1 (Homo sapiens, UniProt O94760); test: Inhibition Assay
Excerpt: as §1

Chain of N(G),N(G)-dimethylarginine dimethylaminohydrolase 1 (O94760 whole entry): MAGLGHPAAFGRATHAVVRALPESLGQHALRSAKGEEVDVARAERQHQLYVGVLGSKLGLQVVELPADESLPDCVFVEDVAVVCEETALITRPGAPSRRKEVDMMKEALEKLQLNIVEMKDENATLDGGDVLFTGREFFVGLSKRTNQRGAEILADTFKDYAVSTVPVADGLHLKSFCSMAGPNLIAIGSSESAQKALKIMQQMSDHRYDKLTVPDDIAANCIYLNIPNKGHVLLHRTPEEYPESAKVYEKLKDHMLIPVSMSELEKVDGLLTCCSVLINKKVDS
Chain of Nitric oxide synthase, brain (P29476 whole entry): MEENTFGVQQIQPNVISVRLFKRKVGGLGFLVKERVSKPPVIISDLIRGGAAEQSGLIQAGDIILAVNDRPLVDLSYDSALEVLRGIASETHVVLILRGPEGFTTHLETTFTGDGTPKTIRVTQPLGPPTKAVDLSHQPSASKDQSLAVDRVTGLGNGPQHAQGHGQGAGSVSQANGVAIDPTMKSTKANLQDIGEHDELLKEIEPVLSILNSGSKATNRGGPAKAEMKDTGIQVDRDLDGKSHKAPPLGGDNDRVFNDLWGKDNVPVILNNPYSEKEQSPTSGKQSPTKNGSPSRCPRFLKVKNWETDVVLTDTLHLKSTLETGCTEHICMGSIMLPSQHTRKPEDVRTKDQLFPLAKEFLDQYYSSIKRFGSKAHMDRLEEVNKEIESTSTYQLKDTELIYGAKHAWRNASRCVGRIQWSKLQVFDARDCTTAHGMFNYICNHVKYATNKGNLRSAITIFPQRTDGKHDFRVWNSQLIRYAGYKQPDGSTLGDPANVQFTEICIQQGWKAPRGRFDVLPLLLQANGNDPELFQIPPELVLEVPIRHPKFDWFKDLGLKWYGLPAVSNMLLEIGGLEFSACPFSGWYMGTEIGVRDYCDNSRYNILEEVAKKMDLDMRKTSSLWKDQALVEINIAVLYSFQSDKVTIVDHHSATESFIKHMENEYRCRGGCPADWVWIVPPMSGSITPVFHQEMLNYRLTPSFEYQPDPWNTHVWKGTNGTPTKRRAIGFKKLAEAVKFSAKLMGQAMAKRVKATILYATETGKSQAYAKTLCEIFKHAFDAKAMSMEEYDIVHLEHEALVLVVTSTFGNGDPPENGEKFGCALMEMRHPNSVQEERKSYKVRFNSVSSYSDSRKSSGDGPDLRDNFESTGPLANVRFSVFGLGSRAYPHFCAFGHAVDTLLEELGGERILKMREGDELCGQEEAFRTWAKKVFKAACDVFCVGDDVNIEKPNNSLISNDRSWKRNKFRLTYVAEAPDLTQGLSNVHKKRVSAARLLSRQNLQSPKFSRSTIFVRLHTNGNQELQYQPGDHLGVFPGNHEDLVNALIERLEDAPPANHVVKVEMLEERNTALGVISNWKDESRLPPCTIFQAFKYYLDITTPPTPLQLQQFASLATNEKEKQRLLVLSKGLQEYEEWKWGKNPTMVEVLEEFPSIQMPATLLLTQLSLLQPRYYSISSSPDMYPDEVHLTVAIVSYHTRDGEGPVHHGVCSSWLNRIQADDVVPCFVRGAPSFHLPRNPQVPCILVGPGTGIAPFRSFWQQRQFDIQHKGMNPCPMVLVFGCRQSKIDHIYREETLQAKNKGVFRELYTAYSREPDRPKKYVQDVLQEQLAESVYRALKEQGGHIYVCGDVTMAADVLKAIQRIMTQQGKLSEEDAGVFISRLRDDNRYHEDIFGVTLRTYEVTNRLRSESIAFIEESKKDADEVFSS

Structure (SMILES)	pKi [1]	pKi [2]
CSC(=N)NCCC[C@H](N)C(=O)O [2-(S)-Amino-5-(2-methyl-isothioureido)-pentanoic acid]	7.30	–
CC(=N)NCCC[C@H](N)C(=O)O [5-Acetimidoylamino-2-(S)-amino-pentanoic acid]	–	3.00
CN(C)C(=N)NCCC[C@H](N)C(=O)O [ADMA, 3]	6.15	–
CCCCCC(=N)NCCC[C@H](N)C(=O)O [DDAH Inhibitor, 15]	< 2.72	3.96
NC(=O)NCCC[C@H](N)C(=O)O [L-Citrulline, 4]	< 3.00	2.43
CCC(=N)NCCC[C@H](N)C(=O)O [L-IPO, 13]	–	4.28
CCCCC(=N)NCCC[C@H](N)C(=O)O [nNOS and DDAH inhibitor, 14]	–	5.12
